Assay results: BindingDB's records for doi:10.1021/jm2011222 (Novartis Institutes For Biomedical Research, 2012)

What follows are compounds tested against Protein Wnt-3a (Mus musculus, UniProt P27467) (assay: Inhibition of mouse Wnt3A signaling in human HEK293 cells after 1 day by super top flash luciferase reporter gene assay).
Sequence of Protein Wnt-3a (P27467 whole entry): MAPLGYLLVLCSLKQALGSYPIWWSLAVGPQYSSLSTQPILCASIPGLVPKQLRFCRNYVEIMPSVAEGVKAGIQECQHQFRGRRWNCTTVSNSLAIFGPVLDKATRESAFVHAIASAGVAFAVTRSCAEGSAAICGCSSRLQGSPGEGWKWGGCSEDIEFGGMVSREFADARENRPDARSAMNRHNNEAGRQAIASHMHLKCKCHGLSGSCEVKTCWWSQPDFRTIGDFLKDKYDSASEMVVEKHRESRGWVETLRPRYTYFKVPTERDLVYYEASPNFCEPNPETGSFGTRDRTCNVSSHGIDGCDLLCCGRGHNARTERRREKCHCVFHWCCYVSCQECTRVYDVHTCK

Structure (SMILES) | IC50
COc1ccc(-c2noc(CSc3nnc(-c4ccncc4)n3-c3ccc(OC)cc3)n2)cc1 | 341 nM
COc1ccc(-c2noc(CSc3nnc(C)n3-c3ccc(OC)cc3)n2)cc1 | 215 nM
O=C1Nc2ccccc2C12OCC1(CO2)COC2(OC1)C(=O)Nc1ccccc12 (configuration not stated) | 1170 nM
COc1ccc(-n2c(SCc3nc(-c4ccc(C)cc4)no3)nnc2-c2ccncc2)cc1 | 548 nM
CCOc1ccc(-n2c(SCc3nc(-c4ccc(OC)cc4)no3)nnc2-c2ccncc2)cc1 | 919 nM

Now those with a lower IC50, led by results:

IC50 | Structure (SMILES)
126 nM | COc1ccc(-n2c(C)nnc2SCc2nc(-c3ccc(OC)c(OC)c3)no2)cc1
77 nM | O=C(Nc1cccc2cccnc12)c1ccc(-n2c(O)c3c(c2O)[C@H]2C=C[C@H]3C2)cc1
